Assays:
[1] = tested on: EboV
[2] = tested on: VSV luc particles bearing the native VSV G glycoprotein; assay type: cell-based, vesicular stomatitis virus

Row | Compound | anti-EboV activity [1] | specificity for EboV GP versus VSV G particles [2]
1 | CCCCc1oc2ccccc2c1C(=O)c1cc(I)c(OCCN(CC)CC)c(I)c1 [amiodarone] | weak anti-EboV activity | –
2 | CCOC(=O)C1=C(COCCN)NC(C)=C(C(=O)OC)C1c1ccccc1Cl (stereo not drawn) [amlodipne] | weak anti-EboV activity | –
3 | CCOc1ccc(S(=O)(=O)N(C)c2ccc(OCC(=O)N(C)C3CCN(C)CC3)cc2)cc1 [compound 6] | – | EboV specific
4 | Oc1ccc(/C=N/n2c(-c3ccco3)cs/c2=N\c2ccc(F)cc2F)c(O)c1 [compound 7] | – | EboV specific
5 | COC(=O)c1ccc(-c2ccco2)n1Cc1cccc(F)c1 [compound 8] | – | EboV specific
6 | COc1ccc([C@@H]2Sc3ccccc3N(CCN(C)C)C(=O)[C@@H]2OC(C)=O)cc1 [diltiazen] | weak anti-EboV activity | –
